# Experimental data as given in the supplement of paper PMC8671470.
# System: NOMO-1
# Assay: cell viability (% survival relative to DMSO control, bortezomib = 0%); higher = less cytotoxic
# Conditions: 10000 nM; 72 h
# Method in brief: (§1)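 Seeding density for each of the 10 AML and 5 CML cell lines was titrated to the linear growth range. Cells went into 384-well plates pre-printed in duplicate with compounds at 1, 10, 100, 1000 or 10000 nM and were held for 72 h at 37 °C with 5% CO2. CellTiter-Glo luminescence then provided the readout. Percent survival is expressed relative to vehicle at 100% and a 10 µM positive control at 0%, averaged over duplicates.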
row,SMILES,cell viability [%]
1,Cc1nnc(-c2ccc(N3CCC(Oc4ccccc4C(F)(F)F)CC3)nn2)s1 [MF-438],103
2,CC(C)c1ccc2c(c1)c(SC(C)(C)C)c(CC(C)(C)C(=O)O)n2Cc1ccc(Cl)cc1 [MK-886],97.5
3,O=C(CCl)N(CCCNC(=O)C(F)(F)F)c1ccc([N+](=O)[O-])cc1 [ML175],-0.851
4,CN(C)C(=N)NC(=N)N [Metformin],92.2
5,Cl.OC[C@H]1NC[C@H](O)[C@@H](O)[C@H]1O [Migalastat],94.8
6,OCCN1C[C@H](O)[C@@H](O)[C@H](O)[C@H]1CO [Miglitol],98.5
7,"CCCCCCCCCCCCC/C=C/[C@@H](O)[C@H](CO)N(C)C [N,N-Dimethylsphingosine]",85.8
8,CCCCCCCNC=O [N-Heptyl-Formamide],93

# System: LAMA-84
# Assay: as above
# Conditions: 1 nM; 72 h
# Method in brief: as §1
row,SMILES,cell viability [%]
1,O=C(Oc1ccc([N+](=O)[O-])cc1)N1CCC(C(O)(c2ccc3c(c2)OCO3)c2ccc3c(c2)OCO3)CC1 [JZL184],97
2,O=C1N[C@@H]2[C@@H](O)[C@@H](O)[C@H](O)[C@@H](CO)N2C1=O [Kifunensine],103
3,CC(C)(CCCCCCCCCCC(C)(C)CC(=O)O)CC(=O)O [MEDICA 16],110
4,Cc1nnc(-c2ccc(N3CCC(Oc4ccccc4C(F)(F)F)CC3)nn2)s1 [MF-438],93.4
5,CC(C)c1ccc2c(c1)c(SC(C)(C)C)c(CC(C)(C)C(=O)O)n2Cc1ccc(Cl)cc1 [MK-886],96.6
6,O=C(CCl)N(CCCNC(=O)C(F)(F)F)c1ccc([N+](=O)[O-])cc1 [ML175],107
7,CN(C)C(=N)NC(=N)N [Metformin],95.6
8,Cl.OC[C@H]1NC[C@H](O)[C@@H](O)[C@H]1O [Migalastat],106
9,OCCN1C[C@H](O)[C@@H](O)[C@H](O)[C@H]1CO [Miglitol],97
10,"CCCCCCCCCCCCC/C=C/[C@@H](O)[C@H](CO)N(C)C [N,N-Dimethylsphingosine]",101
11,CCCCCCCNC=O [N-Heptyl-Formamide],101

# Same assay, conditions: 10 nM; 72 h
row,SMILES,cell viability [%]
1,O=C(Oc1ccc([N+](=O)[O-])cc1)N1CCC(C(O)(c2ccc3c(c2)OCO3)c2ccc3c(c2)OCO3)CC1 [JZL184],102
2,O=C1N[C@@H]2[C@@H](O)[C@@H](O)[C@H](O)[C@@H](CO)N2C1=O [Kifunensine],98.6
3,CC(C)(CCCCCCCCCCC(C)(C)CC(=O)O)CC(=O)O [MEDICA 16],85.8
4,Cc1nnc(-c2ccc(N3CCC(Oc4ccccc4C(F)(F)F)CC3)nn2)s1 [MF-438],85.4
5,CC(C)c1ccc2c(c1)c(SC(C)(C)C)c(CC(C)(C)C(=O)O)n2Cc1ccc(Cl)cc1 [MK-886],101
6,O=C(CCl)N(CCCNC(=O)C(F)(F)F)c1ccc([N+](=O)[O-])cc1 [ML175],106
7,CN(C)C(=N)NC(=N)N [Metformin],87.9
8,Cl.OC[C@H]1NC[C@H](O)[C@@H](O)[C@H]1O [Migalastat],96.8
9,OCCN1C[C@H](O)[C@@H](O)[C@H](O)[C@H]1CO [Miglitol],97.8
10,"CCCCCCCCCCCCC/C=C/[C@@H](O)[C@H](CO)N(C)C [N,N-Dimethylsphingosine]",96.7
11,CCCCCCCNC=O [N-Heptyl-Formamide],99.3

# Same assay, conditions: 100 nM; 72 h
row,SMILES,cell viability [%]
1,O=C(Oc1ccc([N+](=O)[O-])cc1)N1CCC(C(O)(c2ccc3c(c2)OCO3)c2ccc3c(c2)OCO3)CC1 [JZL184],95.9
2,O=C1N[C@@H]2[C@@H](O)[C@@H](O)[C@H](O)[C@@H](CO)N2C1=O [Kifunensine],114
3,CC(C)(CCCCCCCCCCC(C)(C)CC(=O)O)CC(=O)O [MEDICA 16],99.3
4,Cc1nnc(-c2ccc(N3CCC(Oc4ccccc4C(F)(F)F)CC3)nn2)s1 [MF-438],88
5,CC(C)c1ccc2c(c1)c(SC(C)(C)C)c(CC(C)(C)C(=O)O)n2Cc1ccc(Cl)cc1 [MK-886],97.2
6,O=C(CCl)N(CCCNC(=O)C(F)(F)F)c1ccc([N+](=O)[O-])cc1 [ML175],90.5
7,CN(C)C(=N)NC(=N)N [Metformin],97.9
8,Cl.OC[C@H]1NC[C@H](O)[C@@H](O)[C@H]1O [Migalastat],103
9,OCCN1C[C@H](O)[C@@H](O)[C@H](O)[C@H]1CO [Miglitol],101
10,"CCCCCCCCCCCCC/C=C/[C@@H](O)[C@H](CO)N(C)C [N,N-Dimethylsphingosine]",106
11,CCCCCCCNC=O [N-Heptyl-Formamide],104

# Same assay, conditions: 1000 nM; 72 h
row,SMILES,cell viability [%]
1,O=C(Oc1ccc([N+](=O)[O-])cc1)N1CCC(C(O)(c2ccc3c(c2)OCO3)c2ccc3c(c2)OCO3)CC1 [JZL184],89.7
2,O=C1N[C@@H]2[C@@H](O)[C@@H](O)[C@H](O)[C@@H](CO)N2C1=O [Kifunensine],84.4
3,CC(C)(CCCCCCCCCCC(C)(C)CC(=O)O)CC(=O)O [MEDICA 16],98.6
4,Cc1nnc(-c2ccc(N3CCC(Oc4ccccc4C(F)(F)F)CC3)nn2)s1 [MF-438],76.9
5,CC(C)c1ccc2c(c1)c(SC(C)(C)C)c(CC(C)(C)C(=O)O)n2Cc1ccc(Cl)cc1 [MK-886],100
6,O=C(CCl)N(CCCNC(=O)C(F)(F)F)c1ccc([N+](=O)[O-])cc1 [ML175],89.9
7,CN(C)C(=N)NC(=N)N [Metformin],97.7
8,Cl.OC[C@H]1NC[C@H](O)[C@@H](O)[C@H]1O [Migalastat],99
9,OCCN1C[C@H](O)[C@@H](O)[C@H](O)[C@H]1CO [Miglitol],98.5
10,"CCCCCCCCCCCCC/C=C/[C@@H](O)[C@H](CO)N(C)C [N,N-Dimethylsphingosine]",91.3
11,CCCCCCCNC=O [N-Heptyl-Formamide],112

# Same assay, conditions: 10000 nM; 72 h
row,SMILES,cell viability [%]
1,O=C(Oc1ccc([N+](=O)[O-])cc1)N1CCC(C(O)(c2ccc3c(c2)OCO3)c2ccc3c(c2)OCO3)CC1 [JZL184],96.6
2,O=C1N[C@@H]2[C@@H](O)[C@@H](O)[C@H](O)[C@@H](CO)N2C1=O [Kifunensine],107
3,CC(C)(CCCCCCCCCCC(C)(C)CC(=O)O)CC(=O)O [MEDICA 16],97.8
4,Cc1nnc(-c2ccc(N3CCC(Oc4ccccc4C(F)(F)F)CC3)nn2)s1 [MF-438],92.6
5,CC(C)c1ccc2c(c1)c(SC(C)(C)C)c(CC(C)(C)C(=O)O)n2Cc1ccc(Cl)cc1 [MK-886],115
6,O=C(CCl)N(CCCNC(=O)C(F)(F)F)c1ccc([N+](=O)[O-])cc1 [ML175],-0.333
7,CN(C)C(=N)NC(=N)N [Metformin],92.9
8,Cl.OC[C@H]1NC[C@H](O)[C@@H](O)[C@H]1O [Migalastat],92.7
9,OCCN1C[C@H](O)[C@@H](O)[C@H](O)[C@H]1CO [Miglitol],93.6
10,"CCCCCCCCCCCCC/C=C/[C@@H](O)[C@H](CO)N(C)C [N,N-Dimethylsphingosine]",93.3
11,CCCCCCCNC=O [N-Heptyl-Formamide],98.1

# System: ML-2
# Assay: as above
# Conditions: 1 nM; 72 h
# Method in brief: as §1
row,SMILES,cell viability [%]
1,O=C(Oc1ccc([N+](=O)[O-])cc1)N1CCC(C(O)(c2ccc3c(c2)OCO3)c2ccc3c(c2)OCO3)CC1 [JZL184],102
2,O=C1N[C@@H]2[C@@H](O)[C@@H](O)[C@H](O)[C@@H](CO)N2C1=O [Kifunensine],96.5
